Results as given in patent US20190352297A1, “SELECTIVE AURORA A KINASE INHIBITORS” (UNIVERSITAT BERN, priority 2017, published 2019).
Blank lines part the entries; values can stand above or below the compound they belong to.

Key:
Aurora A kinase domain = molecular target: T1, Aurora A kinase domain (Homo sapiens, UniProt O14965); assay: HTRF kinase assay, Aurora A; type: biochemical
T1 construct: human Aurora A kinase domain (residues 122-403 in the pET24-d vector); His-tag (cleaved yes); made in house; host or cells: E. coli BL21 (DE3) Rosetta
T1 sequence (O14965 122-403): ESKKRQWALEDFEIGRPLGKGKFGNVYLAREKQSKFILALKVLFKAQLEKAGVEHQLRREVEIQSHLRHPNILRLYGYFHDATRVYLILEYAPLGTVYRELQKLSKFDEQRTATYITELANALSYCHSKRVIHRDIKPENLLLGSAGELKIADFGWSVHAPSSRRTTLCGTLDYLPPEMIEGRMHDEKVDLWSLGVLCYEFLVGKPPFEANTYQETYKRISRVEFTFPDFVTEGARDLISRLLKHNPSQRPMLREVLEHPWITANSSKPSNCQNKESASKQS
Method: The clone of human Aurora A kinase domain (residues 122-403 in the pET24-d vector) was kindly provided by the Montoya laboratory (University of Copenhagen). The construct was transformed into E. coli BL21 (DE3) Rosetta cells and protein expression was induced with 0.5 mM IPTG at 20° C. for 12 hours. The cells were harvested at 6,000×g for 25 min at 4° C. and resuspended in lysis buffer (50 mM Tris-HCl, 500 mM NaCl, 1 mM PMSF, pH=8.0). Disruption of the cells was performed by sonication cooled on ice, after which the debris were removed by centrifugation at 110,000×g for 30 min at 4° C. Aurora A was purified by affinity chromatography using NiNTA resin from Qiagen following the manufacturer's instructions. After loading, the resin was washed with lysis buffer, followed by a second wash with 6% elution buffer (50 mM Tris-HCl, 500 mM NaCl, 500 mM imidazole, pH=8.0). Protein was eluted with 100% elution buffer. The eluate was exchanged into final buffer (20 mM Tris-HCl, 200 mM NaCl, 0.5 mM EDTA, 2 mM DTT, pH=8.0) using a HiPrep 26/10 desalting column (GE Healthcare). The His-tag was cleaved with TEV protease at 4° C. overnight. […] Protein concentration was determined by UV absorbance. […]
Aurora A and AuroraB kinases were assayed using the homogeneous time-resolved fluorescence (HTRF) KinEASE STK2 kit from Cisbio (France). […] After incubation at room temperature for one hour, fluorescence was measured at 620 nm (europium cryptate) and 665 nm (XL-665) after excitation at 317 nm (lag time 60 μs, integration time 500 μs) using a Tecan Infinite M1000 PRO microplate reader (Greiner 384-well plates, white, non-binding, small volume). The ratio of fluorescence (665 nm/620 nm) was calculated for each well and the results were expressed as follows: specific signal=ratio (sample)−ratio (negative control), where ratio=665 nm/620 nm×10^4. Compounds were measured in threefold serial dilutions at 10 different concentrations, covering the concentration range from no to full inhibition. Each concentration was measured in duplicates, and two independent determinations were made for each IC50 value. […]

pThr288 Aurora A = assay: Phosphorylation of Aurora A Thr288 in cells; type: cell-based, human
Method: (§1) HeLa Kyoto cells were cultured in high-glucose DMEM with GlutaMAX (Life Technologies) media supplemented with 10% fetal calf serum (FCS) in a humidified 5% CO2 incubator at 37° C. For plasmid transfections, cells were seeded at 80-90% confluence. 4 μg of plasmid DNA in 100 μl OptiMEM and 4 μl of Lipofectamine 2000 (Life Technologies) in 100 μl OptiMEM were incubated in parallel for 5 minutes, mixed for 20 minutes and added to each well. All Aurora A clones were constructed using full-length Aurora A as a template with appropriate PCR primer pairs. […] GFP-Aurora AR137A and GFP-Aurora AW277A were engineered using a site directed mutagenesis kit (Agilent Technologies, no. 210515) with appropriate primers. For determining the mitotic index and the chromosome misalignment phenotype, cells were incubated with various concentrations of compounds for 20 h before analysis. Cells were likewise treated with 0.25 μM MLN8237 (Selleckchem, no. S1133) or 5 μM ZM447439 (Selleckchem, no. S1103). For flow cytometry analysis, 50 nM […] and 2.5 μM ZM447439 were used. For rescue experiments, HeLa Kyoto cells were first transfected with GFP-Aurora A, GFP-Aurora AR137A or GFP-Aurora AW277A for 20 h, followed by incubation with 9 for another 20 h before cells were fixed with cold methanol and stained. To assess the impact of compound 9 on cell cycle progression, DNA content was analyzed after propidium iodide staining using FACS (BD Accuri C6 flow cytometer).
For immunofluorescence, cells were fixed in cold methanol, washed in PBT (PBS supplemented with 0.05% Tween-20) and stained with the following primary antibodies: 1:200 rabbit anti-pT288 (Cell Signaling, C39D8), 1:200 rabbit anti-pH3S10 (Cell Signaling, D2C8), 1:500 mouse anti-α-tubulin (Transduction Laboratories, 612709), 1:300 mouse anti-GFP (MAB3580, Millipore), 1:200 anti-TPX2 (Santa Cruz Biotechnology, sc-32863), anti-Aurora A (Invitrogen, 458900). Secondary antibodies were anti-mouse conjugated to Alexa488 or Alexa568, as well as anti-rabbit conjugated to Alexa488 or Alexa568, all used at 1:500 (Invitrogen). […]

[1] = test system: Aurora A localization, HeLa Kyoto cells; assay: Aurora A localization at the mitotic spindle (immunofluorescence); type: cell-based, human; settings: overnight
Method: as §1
Secondary antibodies were anti-mouse conjugated to Alexa488 or Alexa568, as well as anti-rabbit conjugated to Alexa488 or Alexa568, all used at 1:500 (Invitrogen). Confocal images were acquired on a Zeiss LSM 710 confocal microscope equipped with a Axiocam MRm (B/VVW) CCD camera using a 63×NA 1.0 oil objective and processed in ImageJ and Adobe Photoshop, maintaining relative image intensities within a series.

Aurora A (pT288) = settings: read-out: cellular IC50 (pT288) (reported); cited from earlier work
Aurora B (pH3) = settings: pH 3; read-out: cellular IC50 (pH3) (reported); cited from earlier work
HeLa Kyoto cells [2] = assay: Chromosome misalignment during metaphase; type: cell-based, human; settings: HeLa Kyoto cells, 0.25 μM
Method: as §1
(§2) For immunofluorescence, cells were fixed in cold methanol, washed in PBT (PBS supplemented with 0.05% Tween-20) and stained with the following primary antibodies: 1:200 rabbit anti-pT288 (Cell Signaling, C39D8), 1:200 rabbit anti-pH3S10 (Cell Signaling, D2C8), 1:500 mouse anti-α-tubulin (Transduction Laboratories, 612709), 1:300 mouse anti-GFP (MAB3580, Millipore), 1:200 anti-TPX2 (Santa Cruz Biotechnology, sc-32863), anti-Aurora A (Invitrogen, 458900). Secondary antibodies were anti-mouse conjugated to Alexa488 or Alexa568, as well as anti-rabbit conjugated to Alexa488 or Alexa568, all used at 1:500 (Invitrogen). Confocal images were acquired on a Zeiss LSM 710 confocal microscope equipped with a Axiocam MRm (B/VVW) CCD camera using a 63×NA 1.0 oil objective and processed in ImageJ and Adobe Photoshop, maintaining relative image intensities within a series.

Aurora A (Trp277) = molecular target: T2, Aurora A (Trp277) (Homo sapiens, UniProt O14965); assay: Intrinsic tryptophan fluorescence; type: binding
T2 construct: human Aurora A kinase domain (residues 122-403 in the pET24-d vector); His-tag (cleaved yes); made in house; host or cells: E. coli BL21 (DE3) Rosetta
T2 sequence (O14965 122-403): T1 sequence (O14965 122-403)
Method: Binding experiments were performed by mixing Aurora A (500 nM, 375 nM, and 150 nM for 77, 9, and 88, respectively) with varying concentrations (0-100 μM) of the different compounds in buffer (final DMSO concentration 1%), followed by incubation for 15 min at room temperature. Tryptophan fluorescence spectra were recorded at room temperature using an Infinite M1000 Pro plate reader (Tecan) and Corning 96 well half area, flat bottom, non-binding surface, black polystyrene plates. Excitation occurred at 284 nm (bandwidth ±5 nm) and emission at 340 nm (bandwidth ±10 nm). The gain was calculated from the well with the highest protein concentration. Each measurement was done in triplicate.

[3] = test system: phospho-Histone H3 Ser10 (Aurora B); assay: Phospho-Histone H3 Ser10 in cells (Aurora B activity); type: cell-based, human; settings: treated cells
Method: as §1, §2

HeLa Kyoto cells [4] = assay: DNA content analysis by flow cytometry; type: cell-based, human; settings: 48 h, 9 even at 10 μM
Method: as §1, with “For rescue experiments, HeLa Kyoto cells were first transfected with GFP-Aurora A, GFP-Aurora AR137A or GFP-Aurora AW277A for 20 h, followed by incubation with 9 for another 20 h before cells were fixed with cold methanol and stained.” left out

fold less active than precursor 79 (Aurora A kinase domain; Aurora A inhibition relative to 79): 7 fold
Structure (SMILES): CCc1ccc(N=C2SC(Cc3ccnc(N)c3)C(=O)N2C)cc1 (racemic) [rac-91]

IC50 (Aurora A kinase domain; free Aurora A, 20 μM ATP, HTRF, read-out: IC50 Aurora A (biochemical)): 24 nM
Structure (SMILES): CCc1ccc(N=C2SC(Cc3ccnc(Nc4ccc(C(=O)O)cn4)c3)C(=O)N2C)cc1 (racemic) [rac-92]
activity in cells (pThr288 Aurora A): did not show any activity
cellular pThr288 Aurora-A levels (pThr288 Aurora A; overnight incubation): does not reduce pThr288 levels

Structure (SMILES): COc1cc(Nc2ncc3c(n2)-c2ccc(Cl)cc2C(c2c(F)cccc2OC)=NC3)ccc1C(=O)O [Compound 1, Alisertib, reference compound]
Aurora A localization at spindle microtubules and centrosomes [1]: present at centrosomes but not on spindle microtubules
Aurora A localization at spindle microtubules and centrosomes ([1]; listed as alisertib): notably displaced from the spindle microtubules
misaligned chromosomes (HeLa Kyoto cells [2]): ~100%

tryptophan fluorescence, environment of Trp277 (Aurora A (Trp277)): perturbed the environment of Trp277
Structure (SMILES): CCc1ccc(N=C2SC(=Cc3ccncc3)C(=O)N2CCOC)cc1 [Compound 77]

Structure (SMILES): CCc1ccc(N=C2SC(=Cc3ccnc(Nc4ccc(-c5nn[nH]n5)cc4)c3)C(=O)N2C)cc1 [Compound 88]
tryptophan fluorescence, environment of Trp277 (Aurora A (Trp277)): perturbed the environment of Trp277

Structure (SMILES): COc1cc2c(Nc3ccc(NC(=O)c4ccccc4)cc3)ncnc2cc1OCCCN1CCOCC1 [Compound 94, ZM447439, reference compound]
distribution of phospho-Histone H3 Ser10 [3]: absent
accumulation of cells with 8N and 16N DNA contents (HeLa Kyoto cells [4]): massive accumulation

Structure (SMILES): O=C(O)[C@]1(Cc2cccc(Nc3nccs3)n2)CC[C@@H](Oc2cccc(Cl)c2F)CC1 [MK-5108]
IC50 (Aurora B (pH3)): > 10000 nM
